Test results as given in patent publication US11230543B2, “Biaryl monobactam compounds and methods of use thereof for the treatment of bacterial infections” (priority 2015, dated 2022).
Structures can show the parent of a compound that is named as a salt.

How the values were obtained:
[1] = test system: Klebsiella pneumoniae expressing KPC-1 (CL6569); assay: Antibiotic activity: growth inhibitory concentration (OD600), Klebsiella pneumoniae CL6569; type: cell-based; details: lowest concentration inhibiting 95% of bacterial growth; in the presence of β lactamase inhibitor Relebactam 4 μg/mL; 35±2° C. for 22 hours; tested range 100 μM to 0.098 μM
In short: (§1)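 Clinical strains at ~2×10^5 CFU/mL in cation-adjusted Mueller-Hinton II broth, with relebactam at 4 μg/mL final; compounds 100 μM to 0.098 μM final. After 22 hours at 35±2° C, OD600 read; MITC95 is lowest concentration giving 95% growth inhibition.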

[2] = test system: Pseudomonas aeruginosa expressing AmpC (CL5701); assay: Antibiotic activity: growth inhibitory concentration (OD600), Pseudomonas aeruginosa CL5701; type: cell-based; details: lowest concentration inhibiting 95% of bacterial growth; in the presence of β lactamase inhibitor Relebactam 4 μg/mL; 35±2° C. for 22 hours; tested range 100 μM to 0.098 μM
In short: as §1

| Structure (SMILES) | KP_CL6569 MITC95 [1] [µM] | PA_CL5701 MITC95 [2] [µM] |
| --- | --- | --- |
| C[n+]1cc(-c2ccc(OC[C@H](O/N=C(\C(=O)N[C@@H]3C(=O)N(OS(=O)(=O)O)C3(C)C)c3csc(N)n3)C(=O)O)cc2)cn1CCCNCC1CNC1 [Example 103, (S)-3-((E)-2-(2-aminothiazol-4-yl)-2-(((S)-2-(4-(1-(3-((azetidin-3-ylmethyl)amino)-propyl)-2-methyl-1H-pyrazol-2-ium-4-yl)phenoxy)-1-carboxyethoxy)imino)acetamido)-2,2-dimethyl-4-oxoazetidin-1-yl sulfate, 3TFA] | 0.09766 | 3.125 |
| C[n+]1cc(-c2ccc(OC[C@H](O/N=C(\C(=O)N[C@@H]3C(=O)N(OS(=O)(=O)[O-])C3(C)C)c3csc(N)n3)C(=O)O)nn2)cn1CCCN [Example 106, (S)-3-((Z)-2-(((S)-2-((6-(1-(3-aminopropyl)-2-methyl-1H-pyrazol-2-ium-4-yl)pyridazin-3-yl)oxy)-1-carboxyethoxy)imino)-2-(2-aminothiazol-4-yl)acetamido)-2,2-dimethyl-4-oxoazetidin-1-yl sulfate] | 50 | 100 |
| Cc1cc(-c2ccc(OC[C@H](O/N=C(\C(=O)N[C@@H]3C(=O)N(OS(=O)(=O)O)C3(C)C)c3csc(N)n3)C(=O)O)cc2)[n+](C)n1CCCN.O=C([O-])C(F)(F)F [Example 22, 1-(3-aminopropyl)-3-(4-((S)-2-((((Z)-1-(2-aminothiazol-4-yl)-2-(((S)-2,2-dimethyl-4-oxo-1-(sulfooxy)azetidin-3-yl)amino)-2-oxo-ethylidene)amino)oxy)-2-carboxyethoxy)phenyl)-2,5-dimethyl-1H-pyrazol-2-ium 2,2,2-trifluoroacetate] | 0.7813 | 25 |
| CC1(C)[C@H](NC(=O)/C(=N\O[C@@H](COc2ccc([C@H]3CN=C(NCCN)N3)cc2)C(=O)O)c2csc(N)n2)C(=O)N1OS(=O)(=O)O [Example 58, (S)-3-(4-((S)-2-((2-aminoethyl)amino)-4,5-dihydro-1H-imidazol-4-yl)phenoxy)-2-((((Z)-1-(2-aminothiazol-4-yl)-2-(((S)-2,2-dimethyl-4-oxo-1-(sulfooxy)azetidin-3-yl)amino)-2-oxoethylidene)amino)oxy)propanoic acid] | 0.3906 | 3.125 |
| C[n+]1cc(-c2c(F)cc(OC[C@H](O/N=C(\C(=O)N[C@@H]3C(=O)N(OS(=O)(=O)O)C3(C)C)c3csc(N)n3)C(=O)O)cc2F)cn1CCCN.O=C(O)C(F)(F)F [Example 3, (S)-3-((Z)-2-(((S)-2-(4-(1-(3-aminopropyl)-2-methyl-1H-pyrazol-2-ium-4-yl)-3,5-difluorophenoxy)-1-carboxyethoxy)imino)-2-(2-aminothiazol-4-yl)acetamido)-2,2-dimethyl-4-oxoazetidin-1-yl sulfate compound with 2,2,2-trifluoroacetic acid (1:1)] | 0.39 | 6.25 |
| C[n+]1cc(-c2ccc(OC[C@H](O/N=C(\C(=O)N[C@@H]3C(=O)N(OS(=O)(=O)O)C3(C)C)c3csc(N)n3)C(=O)O)cc2F)cn1CC(N)CN (single isomer, unassigned) [Example 46] | 0.3906 | 6.25 |
| C[n+]1ccc(-c2ccc(OC[C@H](O/N=C(\C(=O)N[C@@H]3C(=O)N(OS(=O)(=O)[O-])C3(C)C)c3csc(N)n3)C(=O)O)cc2)cc1NCCCN [Example 63, (S)-3-((Z)-2-(((S)-2-(4-(2-((3-aminopropyl)amino)-1-methylpyridin-1-ium-4-yl)phenoxy)-1-carboxyethoxy)imino)-2-(2-aminothiazol-4-yl)acetamido)-2,2-dimethyl-4-oxoazetidin-1-yl sulfate] | 0.3906 | 6.25 |
| Cn1c(-c2ccc(OC[C@H](O/N=C(\C(=O)N[C@@H]3C(=O)N(OS(=O)(=O)O)C3(C)C)c3csc(N)n3)C(=O)O)cc2)cn(CC(O)CN)c1=N (single isomer, unassigned) [Example 56] | 0.3906 | 3.125 |
| C[C@@H]1[C@H](NC(=O)/C(=N\O[C@@H](COc2ccc(-c3cn(CCCN)[n+](C)c3)cc2)C(=O)O)c2csc(N)n2)C(=O)N1S(=O)(=O)[O-] [Example 9, (2R,3S)-3-((Z)-2-(((S)-2-(4-(1-(3-aminopropyl)-2-methyl-1H-pyrazol-2-ium-4-yl)phenoxy)-1-carboxyethoxy)imino)-2-(2-aminothiazol-4-yl)acetamido)-2-methyl-4-oxoazetidine-1-sulfonate] | 0.3906 | 6.25 |
| C[n+]1cc(-c2ccc(OC[C@H](O/N=C(\C(=O)N[C@@H]3C(=O)N(OS(=O)(=O)[O-])C3(C)C)c3csc(N)n3)C(=O)O)cc2)ccc1NCCN [Example 66, (S)-3-((Z)-2-(((S)-2-(4-(6-((2-aminoethyl)amino)-1-methylpyridin-1-ium-3-yl)phenoxy)-1-carboxyethoxy)imino)-2-(2-aminothiazol-4-yl)acetamido)-2,2-dimethyl-4-oxoazetidin-1-yl sulfate] | 0.2135 | 1.708 |
| CC1(C)[C@H](NC(=O)/C(=N\O[C@@H](COc2ccc(C3CN=C(NCCN)N3)cc2)C(=O)O)c2csc(N)n2)C(=O)N1OS(=O)(=O)O (stereo partly drawn) [Example 60, (2S)-3-(4-(2-((2-aminoethyl)amino)-4,5-dihydro-1H-imidazol-5-yl)phenoxy)-2-((((Z)-1-(2-aminothiazol-4-yl)-2-(((S)-2,2-dimethyl-4-oxo-1-(sulfooxy)azetidin-3-yl)amino)-2-oxoethylidene)amino)oxy)propanoic acid] | 0.3906 | 3.125 |
| C[n+]1cc(OC[C@H](O/N=C(\C(=O)N[C@@H]2C(=O)N(OS(=O)(=O)O)C2(C)C)c2csc(N)n2)C(=O)O)ccc1-c1cnn(CCCN)c1.O=C([O-])C(F)(F)F [Example 26, 2-(1-(3-aminopropyl)-1H-pyrazol-4-yl)-5-((S)-2-((((Z)-1-(2-aminothiazol-4-yl)-2-(((S)-2,2-dimethyl-4-oxo-1-(sulfooxy)azetidin-3-yl)amino)-2-oxo-ethylidene)amino)oxy)-2-carboxyethoxy)-1-methylpyridin-1-ium 2,2,2-trifluoroacetate] | 1.563 | 50 |
| C[n+]1cc(-c2ccc(OC[C@H](O/N=C(/C(=O)N[C@@H]3C(=O)N(OS(=O)(=O)[O-])C3(C)C)c3csc(N)n3)C(=O)O)cc2)cn1CCCNC[C@H](O)CO [Example 101, (S)-3-((E)-2-(2-aminothiazol-4-yl)-2-(((S)-1-carboxy-2-(4-(1-(3-(((S)-2,3-dihydroxypropyl)amino)propyl)-2-methyl-1H-pyrazol-2-ium-4-yl)phenoxy)ethoxy)imino)acetamido)-2,2-dimethyl-4-oxoazetidin-1-yl sulfate] | 0.7813 | 12.5 |
| CC1(C)[C@H](NC(=O)/C(=N\O[C@@H](COc2ccc(-n3cc[n+](CCC[N+](C)(C)C)c3)nc2)C(=O)O)c2csc(N)n2)C(=O)N1OS(=O)(=O)O [Example 110, (S)-3-((Z)-2-(2-aminothiazol-4-yl)-2-(((S)-1-carboxy-2-((6-(3-(3-(trimethylammonio)propyl)-1H-imidazol-3-ium-1-yl)pyridin-3-yl)oxy)ethoxy)imino)acetamido)-2,2-dimethyl-4-oxoazetidin-1-yl sulfate] | 1.563 | 50 |
| CC1(C)[C@H](NC(=O)/C(=N\O[C@@H](COc2ccc(-n3cc[n+](CCCN)c3)nc2)C(=O)O)c2csc(N)n2)C(=O)N1OS(=O)(=O)[O-] [Example 36, (S)-3-((Z)-2-(((S)-2-((6-(3-(3-aminopropyl)-1H-imidazol-3-ium-1-yl)pyridin-3-yl)oxy)-1-carboxyethoxy)imino)-2-(2-aminothiazol-4-yl)acetamido)-2,2-dimethyl-4-oxoazetidin-1-yl sulfate compound with 2,2,2-trifluoroacetic acid (1:1)] | 0.7813 | 6.25 |
| C[n+]1cc(-c2ccc(OC[C@H](O/N=C(\C(=O)N[C@@H]3C(=O)N(OS(=O)(=O)[O-])C3(C)C)c3csc(N)n3)C(=O)O)cc2)ccc1CNC(CN)CN [Example 79, (S)-3-((Z)-2-(2-aminothiazol-4-yl)-2-(((S)-1-carboxy-2-(4-(6-(((1,3-diaminopropan-2-yl)amino)methyl)-1-methylpyridin-1-ium-3-yl)phenoxy)ethoxy)imino)acetamido)-2,2-dimethyl-4-oxoazetidin-1-yl sulfate] | 0.3906 | 6.25 |
| CCOC(=O)[C@H](COc1ccc(-c2cn(CCCN)[n+](C)c2)cc1)O/N=C(\C(=O)N[C@@H]1C(=O)N(OS(=O)(=O)[O-])C1(C)C)c1csc(N)n1 [Example 115, (S)-3-((Z)-2-((((S)-3-(4-(1-(3-aminopropyl)-2-methyl-1H-pyrazol-2-ium-4-yl)phenoxy)-1-ethoxy-1-oxopropan-2-yl)oxy)imino)-2-(2-aminothiazol-4-yl)acetamido)-2,2-dimethyl-4-oxoazetidin-1-yl sulfate] | 12.5 | 100 |
